“Also recorded” adds a separate entry of the source.
Assays:
[1] = test system: SHSY cells; assay: Toxicity of SZ-3 in cultured SHSY cells (MTT); format: cell-based; conditions: different concentrations of SZ-3, 5-20 μM range
Description: (§1) The synthesized SZ-3 compound was tested for neuroprotective properties in cell-based models using a neuroblastoma cell line (SHSY) and thrombin as a stressor. Thrombin was used as a cell death inducer in cell-based models for hemorrhagic brain injury. SHSY cells were challenged by 100 U/ml thrombin and after 3 hrs treated with different concentrations of synthesized compounds. […] Cell death is observed through fluorescence.
(§2) All types of cells used in these examples were assayed for viability and proliferation after 24-72 h using the MTT or CellTiter-Glo Luminescent assay Promega (Madison, Wis.). Cells after treatment were incubated with MTT reagent for 3 h in 5% CO2 at 37° C. The medium was replaced with DMSO to dissolve formazan crystals. Absorbance was read at 570 nm to quantify cell viability. CellTiter-Glo reagents were used in some experiments by adding equal amounts of reagent to the amount of medium containing cells for a 96-well plate. Contents were mixed for 2 minutes then incubated the plate for 10 minutes at room temperature to stabilize luminescent signal.

[2] = test system: SHSY cells; assay: Thrombin-induced cell death in SHSY cells (MTT); format: cell-based, human; conditions: thrombin 100 U/ml
Description: as §1, §2

[3] = test system: cofilin; assay: WB analysis of cofilin expression in thrombin-challenged SHSY cells; format: cell-based, human; conditions: thrombin 100 U/ml, SZ-3 5 μM after 3 h, WB after 24 h
Description: as §1
Cells were harvested and washed with ice-cold lysis buffer (250 mM sucrose, 1.5 mM MgCl2, 10 mM KCl, 20 mM HEPES 7.6 pH, 1 mM of dithiothreitol, 1 mM phenylmethylsulfonyl fluoride, 50 mM NaF, 10 mM sodium orthovanadate, 20 mM sodium pyrophosphate, and protease inhibitors) for 15 min then supplemented with 5% of Nonidet P-40 for 2 min. Cytosolic fraction was collected from the supernatant after centrifugation at 14,000 g for 10 min. Bradford reagent (Bio-Rad Laboratories) was used to determine the protein concentrations, and equal amounts of samples were loaded onto 10-15% SDS-polyacrylamide gels, separated by electrophoresis, and transferred to PVDF membranes. […] Glyceraldehyde 3-phosphate dehydrogenase (GAPDH) or beta-actin were used as the loading control, and band intensity analyzed using Bio-Rad Chemi-Doc XRS Image Lab Software.

[4] = test system: HMC3 cells; assay: Cell viability of LPS-challenged HMC3 cells (CellTiter-Glo Luminescent assay); format: cell-based; conditions: LPS 0.1 μg/mL, SZ-3 5-10 μM concurrently
Description: (§3) Cultured HMC3 cells were challenged with 0.1 μg/mL of LPS and treated with different concentrations of SZ-3 concurrently. At the end of the experiment cells were harvested for MTT by CellTiter-Glo Luminescent assay (FIG. 9A), Griess assay for NO release (FIG. 9B), and TNF-α by ELISA (FIG. 9C).
(§4) After hemorrhage, activated microglia release proinflammatory mediators such as cytokines, chemokines, and nitric oxide (NO) leading to secondary injury which may be worse than the initial insult and may result in severe neurological deficits and death. In order to test whether the synthesized compound will reduce or stop microglial activation and inflammation after hemorrhage, whether the compound poses toxicity to microglia was first assessed. Human microglial cell line (HMC3) was challenged or activated with lipopolysaccharide (LPS) ([…]) and treated with different concentrations of the SZ-3 (10 and 5 μM) concurrently. CellTiter-Glo luminescent assay was used for cell viability; Griess reagent assay was used for NO release and ELISA was used for TNF-α estimations.
All types of cells used in these examples were assayed for viability and proliferation after 24-72 h using the MTT or CellTiter-Glo Luminescent assay Promega (Madison, Wis.). Cells after treatment were incubated with MTT reagent for 3 h in 5% CO2 at 37° C. […] Absorbance was read at 570 nm to quantify cell viability. […]

[5] = test system: NO release from HMC3 cells; assay: Griess assay for NO release from LPS-challenged HMC3 cells; format: cell-based, human
Description: as §3, §4
Next, a NO release assay was performed to determine if SZ-3 can reduce the NO release. […] Next, whether the major inflammatory cytokine TNF-α is reduced with the SZ-3 treatment was evaluated. As a consequence of microglial activation, TNF-α levels are increased, and the same pattern was observed when cells were challenged with LPS. There was a significant increase in TNF-α after LPS challenge.
NO was indirectly assayed through the measurement of nitrite by mixing a sample of culture medium with an equal volume of Griess reagent (0.3% naphthylethylenediamine dihydrochloride, 3% sulfanilamide, 8% phosphoric acid) and reading at 540 nm.

[6] = test system: TNF-α; assay: TNF-α ELISA in LPS-challenged HMC3 cells; format: cell-based, human; conditions: SZ-3 10 μM and 5 μM
Description: as §3
After hemorrhage, activated microglia release proinflammatory mediators such as cytokines, chemokines, and nitric oxide (NO) leading to secondary injury which may be worse than the initial insult and may result in severe neurological deficits and death. In order to test whether the synthesized compound will reduce or stop microglial activation and inflammation after hemorrhage, whether the compound poses toxicity to microglia was first assessed. […]
Next, a NO release assay was performed to determine if SZ-3 can reduce the NO release. […] Next, whether the major inflammatory cytokine TNF-α is reduced with the SZ-3 treatment was evaluated. […]
HMC3 cells (30,000 cells/well in a 96-well plate) were stimulated by LPS ([…]), then treated with DMSO or different concentrations of drug 3 h later. The supernatants were collected after 24 h, and the concentrations of TNF-α were measured using enzyme-linked immunosorbent assay (ELISA) according to the kit's instructions (R&D Systems, Inc.).

[7] = test system: HMC3 cells; assay: Scratch wound assay (IncuCyte) of microglial migration and proliferation; format: cell-based, human; conditions: LPS 200 ng/ml
Description: HMC3 cells were seeded onto a poly-D-lysine hydrobromidecoated-coated 96-well culture plate and placed overnight in a 37° C. IncuCyte S3. WoundMaker was used to simultaneously create wounds in all wells and then LPS (200 ng/ml) was added to wounded cells except control group. After 3 h cells were treated with DMSO (control) or SZ-3 (5 μM). The wound images were taken at 2 h intervals for 58 h. Data were processed and analyzed by using IncuCyte software.
In response to brain injury, microglia transform into an activated state and migrate to the damaged area. This migration leads to an accumulation of activated microglia around the injury site resulting in vicious cycle of microglial activation and further release of inflammatory cytokines. To elucidate whether SZ-3 can stop or reduce the migration of activated microglial cells towards the injury site, a scratch wound assay was performed. At different time intervals, wound confluence, relative wound, and wound width metrics were assayed to analyze the migration of the microglial cells.
HMC3 cells (30,000 cells/well) were seeded onto a poly-D-lysine hydrobromidecoated-coated 96-well culture plate (corning) and placed overnight in a 37° C. IncuCyte S3 (Essen BioScience) supplied with 5% CO2. WoundMaker (Essen BioScience) was used to simultaneously create wounds in all wells then washed twice with culture medium. LPS (200 ng/ml) was added to wounded cells except control group immediately after the wash. 3 h later cells were treated with DMSO (control) or SZ-3 (5 μM). The wound images were taken at 2 h intervals for 72 h. Data were processed and analyzed by using IncuCyte software.

Compound: CC(C)(C)c1ccc(O)c(CN(Cc2cc(C(C)(C)C)ccc2O)C2CCC(NC(N)=O)CC2)c1 (stereo not shown) [SZ-3, 4-{bis[(5-tert-butyl-2-hydroxyphenyl)methyl]amino}cyclohexyl urea]
- toxicity in SHSY cells [1]: did not show any signs of toxicity; also recorded: No toxicity was observed
- cell death induced by thrombin, best concentration ([2]; SZ-3 10 μM): showing the best effect
- cell death induced by thrombin ([2]; SZ-3 20, 10, 5 μM after 3 h, MTT after 24 h): significantly reversed the cell death; also recorded: significantly restored cell death induced by thrombin
- cofilin expression [3]: significantly reduced cofilin expression
- toxicity in LPS-challenged HMC3 cells [4]: No cell toxicity was observed
- NO release ([5]; LPS 0.1 μg/mL, different concentrations of SZ-3): significantly reduced NO
- NO release ([5]; LPS, SZ-3 5 μM, p<0.001): significantly reduced NO release
- NO release ([5]; LPS, SZ-3 10 μM): significance was at p<0.01
- TNF-α levels [6]: significantly reduced TNF-α levels; also recorded: significantly reduced NO and TNF-α release
- distance between the migrating edges of the wound (wound width) ([7]; SZ-3 5 μM after 3 h): in between
- microglial migration and proliferation ([7]; SZ-3 5 μM after 3 h): reduces the proliferation and migration of the microglial cells; also recorded: reduced microglial migration and proliferation
- confluence of cells within the wound region ([7]; SZ-3 5 μM after 3 h, first 24 h): less with SZ-3 treated cells relative to non-treated cells
- cell density in the wound area relative to outside the wound area ([7]; SZ-3 5 μM, after the 24 h of treatment): slow increase rate in cell density in the wound area

From patent publication US11548850B2, “Development of a cofilin inhibitor for the treatment of hemorrhagic brain injury-induced neuroinflammation” (The University of Toledo, priority 2019, dated 2023)
